# Measurements reported in patent US20230382915A1, “GCN2 AND PERK KINASE INHIBITORS AND METHODS OF USE THEREOF” (Deciphera Pharmaceuticals, LLC, priority 2021, published 2023).
# Columns and labels:
# [1] = system: ATF4 in thapsigargin stimulated CCRF-CEM cells (PERK); assay: CCRF-CEM thapsigargin (TG) ATF4 ELISA; assay type: cell-based; conditions: Homo sapiens, 1 μM thapsigargin
# Experimental: CCRF-CEM leukemia cells (catalog #CCL-116) were obtained from the American Type Culture Collection (ATTC, Manassas, VA). Briefly, cells were grown in RPMI-1640 medium supplemented with 10% heat-inactivated fetal bovine serum (Invitrogen, Carlsbad, CA) and 1% Penicillin/Streptomycin/L-Glutamine at 37° C., 5% CO2, and 95% humidity. Cells were expanded until reaching one million cells per mL at which time they were subcultured or harvested for assay use. One million five hundred thousand cells per well in 1 mL complete growth medium were dispensed into 12-well plates and incubated overnight. A serial dilution of test compound was added and cells were incubated at 37° C., 5% CO2, and 95% for three hours, then 1 μM thapsigargin was added and cells were incubated for an additional hour at 37° C., 5% CO2, and 95%. Cells were lysed then ATF4 levels were measured using an ELISA assay (Proteintech, Rosemont, IL). Absorbance was measured at 450 nm and 544 nM using a Synergy2 or equivalent reader (Biotek, Winooski VT). Data was analyzed using PRISM software (Graphpad, San Diego, CA) to calculate IC50 values.
# [2] = system: MV-4-11 xenograft; assay: MV-4-11 xenograft efficacy model; assay type: in vivo, mice; conditions: 14 days of dosing
# Experimental: The MV-4-11 xenograft model was performed in compliance with all the laws, regulations and guidelines of the National Institutes of Health (NIH) and with the approval of the Animal Care and Use Committee of Crown Bioscience (Taicang, China), an AAALAC accredited facility. Food and water was provided ad libitum. […] Female NOD/SCID (6-9 weeks old; Vital River Laboratories Research Models and Services (Beijing, China)) were inoculated subcutaneously right front flank region with five million cells in Dulbecco's Phosphate Buffered Saline:Matrigel (1:1), using a 27-gauge needle and syringe. When tumor burdens reached 150 mm 3 on average on day 7, mice were randomly assigned into groups such that the mean tumor burden for all groups was within 10% of the overall mean tumor burden for the study population. Groups were treated on days 7-21 as follows: vehicle control (dosed orally and IP to mimic combination groups) (n=10); Compound 2 dosed orally at 50 mg/kg/day of Compound 2 (n=10); Leunase (Kyowa Kirin, Japan) dosed IP at 1000 U/kg/day (n=10); Leunase (Kyowa Kirin, Japan) dosed IP at 1000 U/kg/day (n=10) and Compound 2 dosed orally at 50 mg/kg/day of Compound 2 (n=10). Tumor volume and body weight were measured three time per week. Tumor burden (mg) was estimated from caliper measurements by the formula: tumor burden (mg=mm 3)=(length×width 2)/2.
# [3] = system: phospho-GCN2 (Thr899) in HCT116 colorectal cancer cells; assay: HCT116 amino acid starved (-AA) phospho-GCN2 Western blot; assay type: cell-based; conditions: Homo sapiens, HCT-116, 4 h, read-out: HCT116 -AA pGCN2 Western Blot
# Experimental: HCT116 colorectal cancer cells (catalog #CCL-247) were obtained from the American Type Culture Collect (ATTC, Manassas, VA). Briefly, cells were grown in RPMI 1640 supplemented with 10% heat inactivated fetal bovine serum (Invitrogen, Carlsbad, CA) and 1% Penicillin/Streptomycin/L-Glutamine at 37° C., 5% CO2, and 95% humidity. Cells were expanded until reaching 70-95% confluency at which point they were subcultured or harvested for assay use. Cells were seeded in 12-well culture plate at five hundred thousand cells per well in 1 mL complete growth medium and incubated overnight at 37° C., 5% CO2, and 95% humidity. The next day each well was replaced with 1 mL Earle's Balanced Salt Solution (EBSS, Invitrogen, Carlsbad, CA) supplemented with 10% Dialyzed Fetal Bovine Serum, 5.5 mM Glucose, 1% Penicillin/Streptomycin and 1% Vitamin solution (thermo #11120052). A serial dilution of test compound was dispensed into well. Plates were incubated for 4 h at 37° C., 5% CO2, and 95% humidity. […] Western blot was performed on each lysate to quantify phospho-GCN2 (Thr899), total GCN2, ATF4 and beta-Actin. […] Data were analyzed using GraphPad Prism software (GraphPad, San Diego, CA) to calculate IC50 values.
# [4] = biological target: PERK enzyme (Homo sapiens (Human), UniProt Q9NZJ5); assay: Recombinant PERK activation assay; assay type: biochemical; conditions: FIG. 9B
# Chain of PERK enzyme (Q9NZJ5 30-1116): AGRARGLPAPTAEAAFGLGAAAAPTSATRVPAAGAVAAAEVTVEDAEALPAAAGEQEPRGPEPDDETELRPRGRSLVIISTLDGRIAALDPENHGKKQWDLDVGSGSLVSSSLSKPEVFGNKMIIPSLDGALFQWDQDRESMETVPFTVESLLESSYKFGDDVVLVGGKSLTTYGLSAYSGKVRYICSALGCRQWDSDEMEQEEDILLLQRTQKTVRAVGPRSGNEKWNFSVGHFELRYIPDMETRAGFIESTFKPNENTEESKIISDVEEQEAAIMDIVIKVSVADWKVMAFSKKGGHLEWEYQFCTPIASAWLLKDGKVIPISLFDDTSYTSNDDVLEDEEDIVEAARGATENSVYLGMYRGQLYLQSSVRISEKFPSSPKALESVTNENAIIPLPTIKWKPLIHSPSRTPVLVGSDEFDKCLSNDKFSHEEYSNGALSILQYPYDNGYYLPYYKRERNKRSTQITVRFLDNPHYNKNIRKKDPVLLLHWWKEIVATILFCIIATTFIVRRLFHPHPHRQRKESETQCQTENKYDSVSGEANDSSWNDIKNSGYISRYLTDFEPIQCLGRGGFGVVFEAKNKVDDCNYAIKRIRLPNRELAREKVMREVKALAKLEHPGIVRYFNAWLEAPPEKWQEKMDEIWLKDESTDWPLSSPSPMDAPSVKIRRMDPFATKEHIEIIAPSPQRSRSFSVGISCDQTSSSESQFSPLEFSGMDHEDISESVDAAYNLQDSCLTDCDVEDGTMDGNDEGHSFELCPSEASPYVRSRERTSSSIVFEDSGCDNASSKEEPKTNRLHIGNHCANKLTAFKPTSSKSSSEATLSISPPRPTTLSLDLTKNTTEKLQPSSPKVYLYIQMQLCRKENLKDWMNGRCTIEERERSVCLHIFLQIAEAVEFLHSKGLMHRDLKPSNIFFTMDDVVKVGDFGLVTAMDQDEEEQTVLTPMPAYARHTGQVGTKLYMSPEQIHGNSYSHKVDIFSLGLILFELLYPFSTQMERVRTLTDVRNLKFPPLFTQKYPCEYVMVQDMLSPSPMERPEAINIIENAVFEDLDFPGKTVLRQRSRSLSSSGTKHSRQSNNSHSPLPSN
# Experimental: (§1) To measure Compound 2-mediated PERK modulation, 200 nM PERK enzyme (Enzo, Farmingdale, NY) was incubated with Compound 2 titer for 30 min at RT. Following incubation, 200 nM substrate (GFP-eIF2α) (ThermoFisher Scientific, Waltham, MA) and 1 mM ATP was added to the mixture and incubated for 60 min at RT. Reaction was stopped by the addition of 10 mM EDTA and phosphorylated eiF2a substrate was detected using 2 nM LanthaScreen Tb-anti-peIF2α (pSer52) antibody (ThermoFisher Scientific, Waltham, MA) then incubated in the dark. After a 60 min incubation at room temperature, TR-FRET was monitored using an excitation wavelength of 340 nm and emission wavelengths of 490 nm and 520 nm.
# [5] = biological target: Recombinant GCN2 (EIF2AK4) (Homo sapiens (Human), UniProt Q9P2K8); assay: Recombinant GCN2 activation assay; assay type: biochemical; conditions: FIG. 9A
# Chain of Recombinant GCN2 (EIF2AK4) (Q9P2K8 whole entry): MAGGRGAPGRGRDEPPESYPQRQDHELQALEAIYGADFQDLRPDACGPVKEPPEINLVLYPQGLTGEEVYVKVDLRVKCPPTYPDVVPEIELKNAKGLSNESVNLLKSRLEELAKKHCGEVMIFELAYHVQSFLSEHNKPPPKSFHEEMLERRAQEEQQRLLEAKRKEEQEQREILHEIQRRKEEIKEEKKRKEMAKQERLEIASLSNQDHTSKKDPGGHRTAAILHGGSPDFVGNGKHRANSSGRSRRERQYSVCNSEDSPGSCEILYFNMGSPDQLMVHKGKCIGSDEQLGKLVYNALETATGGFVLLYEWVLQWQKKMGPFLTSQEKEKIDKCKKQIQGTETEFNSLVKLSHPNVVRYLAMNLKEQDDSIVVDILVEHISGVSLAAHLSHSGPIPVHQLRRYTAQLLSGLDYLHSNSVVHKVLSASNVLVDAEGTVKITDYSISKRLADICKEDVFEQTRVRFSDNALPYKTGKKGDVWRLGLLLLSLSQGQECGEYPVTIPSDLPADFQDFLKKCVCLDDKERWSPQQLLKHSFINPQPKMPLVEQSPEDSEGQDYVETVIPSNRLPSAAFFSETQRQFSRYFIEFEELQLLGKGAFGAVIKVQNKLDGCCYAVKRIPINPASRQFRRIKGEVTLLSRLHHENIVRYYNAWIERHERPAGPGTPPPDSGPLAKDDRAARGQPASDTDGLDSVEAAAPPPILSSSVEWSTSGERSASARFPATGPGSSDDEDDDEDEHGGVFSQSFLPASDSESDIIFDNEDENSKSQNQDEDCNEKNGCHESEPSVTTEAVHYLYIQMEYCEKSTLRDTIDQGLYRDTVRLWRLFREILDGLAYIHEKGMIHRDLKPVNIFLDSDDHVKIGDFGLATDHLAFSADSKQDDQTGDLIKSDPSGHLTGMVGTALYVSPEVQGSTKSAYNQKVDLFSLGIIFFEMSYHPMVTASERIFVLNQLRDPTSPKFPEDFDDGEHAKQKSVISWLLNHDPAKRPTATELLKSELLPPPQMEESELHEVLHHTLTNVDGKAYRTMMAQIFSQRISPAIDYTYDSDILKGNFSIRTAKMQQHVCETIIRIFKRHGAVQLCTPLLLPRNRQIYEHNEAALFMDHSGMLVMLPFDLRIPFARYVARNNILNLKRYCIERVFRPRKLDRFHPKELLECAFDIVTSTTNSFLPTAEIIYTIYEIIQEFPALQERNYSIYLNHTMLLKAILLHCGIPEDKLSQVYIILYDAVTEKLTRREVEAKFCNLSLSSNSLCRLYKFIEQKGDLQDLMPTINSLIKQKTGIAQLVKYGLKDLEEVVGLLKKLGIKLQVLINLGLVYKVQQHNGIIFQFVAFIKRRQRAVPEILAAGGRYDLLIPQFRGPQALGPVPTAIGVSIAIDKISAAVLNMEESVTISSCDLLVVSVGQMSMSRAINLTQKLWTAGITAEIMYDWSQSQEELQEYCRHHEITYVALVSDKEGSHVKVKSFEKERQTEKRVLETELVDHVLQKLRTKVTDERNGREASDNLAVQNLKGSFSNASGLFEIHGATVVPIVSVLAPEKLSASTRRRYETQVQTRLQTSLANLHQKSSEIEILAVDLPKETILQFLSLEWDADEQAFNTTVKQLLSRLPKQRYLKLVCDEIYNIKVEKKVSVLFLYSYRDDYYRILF
# Experimental: as §1, with “Recombinant GCN2 (EIF2AK4) (Carna Biosciences, Japan) was dephosphorylated by incubating with 16,000 units of lambda phosphatase (New England Biolabs, Ipswich, MA) for 3 h at 30° C. in 1×phosphatase reaction buffer. To” for “To”, “2-mediated GCN2” for “2-mediated PERK”, “modulation, 12.5” for “modulation, 200”, “nM dephosphorylated GCN2 diluted in Kinase buffer (Invitrogen, Carlsbad, CA)” for “nM PERK enzyme (Enzo, Farmingdale, NY)”, “incubation, 130” for “incubation, 200”, “and 0.05” for “and 1”
smiles,measurement,setting,value
"Cn1cc(-c2cccc(NS(=O)(=O)c3cc(Cl)cc(CO)c3Cl)c2F)c2c(N)ncnc21 [Example 2, N-(3-(4-amino-7-methyl-7H-pyrrolo[2,3-d]pyrimidin-5-yl)-2-fluorophenyl)-2,5-dichloro-3-(hydroxymethyl)benzenesulfonamide]",IC50,[1],≤ 0.1 µM
same,mean tumor growth inhibition,[2]; 50 mg/kg/day combined with Leunase,54%
same,"effect on tumor growth, single agent",[2]; 50 mg/kg/day orally,no significant effect on tumor growth
same,IC50,[3],≤ 0.1 µM
same,concentrations at which PERK enzyme is activated,[4],0.05 to 6 nM
same,concentrations at which recombinant PERK activity is inhibited,[4],above 3 μM
same,"activation of PERK enzyme, % of control",[4]; at 0.05-6 nM,up to 250 % of control
same,concentrations at which GCN2 enzyme is activated,[5],0.05 to 3 nM
same,concentrations at which recombinant GCN2 activity is inhibited,[5],above 10 nM
same,"activation of GCN2 enzyme, % of control",[5]; at 0.05-3 nM,up to 250 % of control
